Numbered stars: 1 amine (or outer) side, 2 acyl side, 3 side chain; on linkers, the order of the positions; unused ones are H or OH. Bridge positions count the residues as written; N and C are the ends. Square brackets hold non-standard residues; d marks the D form. Side chains are listed from the residue outwards. Peptide text beside a SMILES is read from it. * marks the point of attachment. γGlu = O=C(O)[C@H](CCC(=O)[*:2])N[*:1]; Palmitoyl = CCCCCCCCCCCCCCCC(=O)*; Myristoyl = CCCCCCCCCCCCCC(=O)*; Dab = NCC[C@H](N)C(=O)O
Tests used:
in vivo = experiment: in vivo; parameters: species or system male CD-1 mice; details: for bioavailability / AUC(0-inf) / Cmax / Tmax / half-life / level at 0.083 h / level at 0.25 h / level at 0.5 h / level at 1 h / level at 2 h / level at 4 h / level at 8 h / level at 12 h / level at 24 h: male, CD-1, mouse; for AUC0-∞ dcor. / Cmax dcor.: mouse
Description: 2.7. Pharmacokinetic Study (PK)
Pharmacokinetic study after intravenous (i.v.) and subcutaneous (s.c.) administration was performed for the compounds of Ex. 17, Ex. 20, Ex. 25, Ex. 26, Ex. 28, and Ex. 29. […] The compounds of Ex. 17, Ex. 25, Ex. 26, Ex. 28, and Ex. 29 were administered i.v. and s.c. as a cassette whereas for the compound of Ex. 20a single i.v. and s.c. administration was accomplished.
30 grams (±20%) male CD-1 mice obtained from Janvier, France, were used in the study testing the cassette compounds. The vehicle, phosphate buffered saline containing 5% DMSO, was added to give a final concentration of 0.5 mg/mL of the compounds (i.v. route and s.c. route). The volume was 2 mL/kg i.v. and 10 mL/kg s.c. and the cassette compounds were injected to give a final intravenous dose of 1 mg/kg and an subcutaneous dose of 5 mg/kg. Approximately 500 μL of blood were removed from the opened heart at predetermined time intervals (5, 15, 30 min and 1, 2, 4, 8 and 12 hours for the i.v. study and 5, 15, 30 min and 1, 2, 4, 8, 12 and 24 hours for the s.c. study) and added to heparinized tubes. Plasma was removed from pelleted cells upon centrifugation and frozen at −80° C. prior to HPLC-MS analysis. For the compound of Ex. 20 30 grams (±20%) male CD-1 mice obtained from Charles River Laboratories Deutschland GmbH were used. The vehicle, phosphate buffered saline, was added to give a final concentration of 0.2 mg/mL of the compound (i.v. route) and 1 mg/mL (s.c. route). The volume was 5 mL/kg i.v. and s.c. and the compound was injected to give a final intravenous dose of 1 mg/kg and an subcutaneous dose of 5 mg/kg. Approximately 300-400 μL of blood was removed under light isoflurane anesthesia by cardiac puncture at predetermined time intervals (5, 15, 30 min and 1, 2, 3, 4, 6, 12 hours for the i.v. study and 15, min and 1, 2, 4, 6, 8, 12 and 24 hours for the s.c. study) and added to heparinized tubes. Plasma was removed from pelleted cells upon centrifugation and frozen at −80° C. prior to HPLC-MS analysis.
Preparation of the Plasma Calibration Samples
“Blank” mouse plasma from untreated animals was used. Aliquots of plasma of 0.2 mL each were spiked with 50 ng of propranolol (Internal Standard, IS), (sample preparation by solid phase extraction on OASIS® HLB cartridges [Waters]) and with known amounts of Ex. 20 in order to obtain 9 plasma calibration samples in the range 10-5000 nM. The OASIS® HLB cartridges were conditioned with 1 mL of methanol and then with 1 mL of 1% NH3 in water. Samples were then diluted with 700 μL of 1% NH3 in water and loaded. The plate was washed with 1 mL of methanol/1% NH3 in water 5/95 (v/v). Elution was performed using 1 mL of 0.1% TFA in methanol.
The plate containing eluates was introduced into the concentrator system and taken to dryness. The residues were dissolved in 100 μL of formic acid 0.1%/acetonitrile, 95/5 (v/v) and analysed in the HPLC/MS on a reverse phase analytical column (Jupiter C18, 50×2.0 mm, 5 μm, Phenomenex), using gradient elution (mobile phases A: 0.1% formic acid in water, B: acetonitrile; from 5% B to 100% B in 2 min.).
Preparation of Plasma Samples
Samples coming from animal treatments were pooled in order to obtain an appropriate volume for the extraction. If the total volume obtained was less than 0.2 mL the appropriate amount of “blank” mouse plasma was added in order to keep the matrix identical to the calibration curve. Samples were than spiked with IS and processed as described for the calibration curve.
Pharmacokinetic Evaluation
In order to perform PK analysis pooled plasma data (n=3 mice) was used. PK parameters were calculated by WinNonLin™ software version 5.2.1 (Pharsight—A Certara™ Company, Mountain View, Calif. 94041 USA) using non-compartmental analysis with a linear up/log down trapezoidal calculation method. For the terminal elimination phase at least 3 time points and a correlation coefficient greater than 0.85 was used. […]

[1] = Plasma stability in human plasma; type: in vitro ADME; details: human plasma, 37° C.; for remaining at 24 h, 10 μM: 1440 min, read-out: human pl. cpd left at 1440 min
Method in brief: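 Peptides (1 mM DMSO/H2O stock) were spiked into human or mouse plasma in triplicate and incubated at 37 °C, sampling from 0 to 1440 min. Samples were quenched in formic acid/acetonitrile and analysed by LC/MS MRM. Remaining percent of t=0 was calculated and T1/2 derived by trend fitting.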

| SMILES | bioavailability (in vivo) | AUC(0-inf) (in vivo; iv, 1 mg/kg) | Cmax (in vivo; iv, 1 mg/kg) | Tmax (in vivo; iv, 1 mg/kg) | half-life (in vivo; iv, 1 mg/kg) | level at 0.083 h (in vivo; iv, 1 mg/kg) | level at 0.25 h (in vivo; iv, 1 mg/kg) | level at 0.5 h (in vivo; iv, 1 mg/kg) | level at 1 h (in vivo; iv, 1 mg/kg) | level at 2 h (in vivo; iv, 1 mg/kg) | level at 4 h (in vivo; iv, 1 mg/kg) | level at 8 h (in vivo; iv, 1 mg/kg) | level at 12 h (in vivo; iv, 1 mg/kg) | AUC(0-inf) (in vivo; sc, 5 mg/kg) | Cmax (in vivo; sc, 5 mg/kg) | Tmax (in vivo; sc, 5 mg/kg) | half-life (in vivo; sc, 5 mg/kg) | level at 0.25 h (in vivo; sc, 5 mg/kg) | level at 0.5 h (in vivo; sc, 5 mg/kg) | level at 1 h (in vivo; sc, 5 mg/kg) | further results |
| --- | --- | --- | --- | --- | --- | --- | --- | --- | --- | --- | --- | --- | --- | --- | --- | --- | --- | --- | --- | --- | --- |
| CCCCCCCCCCCCCC(=O)N[C@@H](CCC(=O)NCCCC[C@@H]1NC(=O)[C@H](Cc2ccc(O)cc2)NC(=O)[C@@H]2CSSC[C@H](NC(=O)[C@H](Cc3ccc(O)cc3)NC(=O)[C@H](Cc3c[nH]cn3)NC(=O)[C@H](Cc3ccc(O)cc3)NC(=O)[C@@H]3CCCN3C(=O)[C@H]3CCCN3C(=O)[C@H](CCCCN)NC1=O)C(=O)N[C@@H](CO)C(=O)N[C@@H](C)C(=O)N1CCC[C@@H]1C(=O)N[C@@H](CCN)C(=O)N[C@@H](CCCNC(=N)N)C(=O)N[C@@H](Cc1ccc(O)cc1)C(=O)N2)C(=O)O [Ex. 28] (cyclo(YHYCSA[dP][Dab]RYCYK([γGlu-Myristoyl])K[dP]P); disulfide 4-11) | 150% | 3.43 µg·h/mL | 2.82 µg/mL | 0.1 h | 3.2 h | 2.82 µg/mL | 2.12 µg/mL | 2.03 µg/mL | 1.67 µg/mL | 0.114 µg/mL | 0.148 µg/mL | 0.034 µg/mL | 0.017 µg/mL | 25.7 µg·h/mL | 1.9 µg/mL | 8 h | 4.3 h | 0.016 µg/mL | 0.073 µg/mL | 0.232 µg/mL | level at 2 h (in vivo; sc, 5 mg/kg): 1.52 µg/mL; level at 4 h (in vivo; sc, 5 mg/kg): 1.27 µg/mL; level at 8 h (in vivo; sc, 5 mg/kg): 1.9 µg/mL; level at 12 h (in vivo; sc, 5 mg/kg): 1.61 µg/mL; level at 24 h (in vivo; sc, 5 mg/kg): 0.164 µg/mL; AUC0-∞ dcor. (in vivo; iv, 1 mg/kg): 3430.8 kg·ng·h/mg/mL; Cmax dcor. (in vivo; iv, 1 mg/kg): 2817.0 kg·ng/mg/mL; AUC0-∞ dcor. (in vivo; sc, 5 mg/kg): 5137.4 kg·ng·h/mg/mL; Cmax dcor. (in vivo; sc, 5 mg/kg): 380.0 kg·ng/mg/mL; remaining at 24 h, 10 μM [1]: 80%; half-life at 10 μM ([1]; up to 1440 min, read-out: human pl. T1/2): 19.1 h |
| CCCCCCCCCCCCCCCC(=O)N[C@@H](CCC(=O)NCCCC[C@@H]1NC(=O)[C@H](Cc2ccc(O)cc2)NC(=O)[C@@H]2CSSC[C@H](NC(=O)[C@H](Cc3ccc(O)cc3)NC(=O)[C@H](Cc3c[nH]cn3)NC(=O)[C@H](Cc3ccc(O)cc3)NC(=O)[C@@H]3CCCN3C(=O)[C@H]3CCCN3C(=O)[C@H](CCCCN)NC1=O)C(=O)N[C@@H](CO)C(=O)N[C@@H](C)C(=O)N1CCC[C@@H]1C(=O)N[C@@H](CCN)C(=O)N[C@@H](CCCNC(=N)N)C(=O)N[C@@H](Cc1ccc(O)cc1)C(=O)N2)C(=O)O [Ex. 29] (cyclo(YHYCSA[dP][Dab]RYCYK([γGlu-Palmitoyl])K[dP]P); disulfide 4-11) | 151% | 2.94 µg·h/mL | 2.32 µg/mL | 0.1 h | 3.6 h | 2.32 µg/mL | 1.82 µg/mL | 1.73 µg/mL | 1.5 µg/mL | 0.087 µg/mL | 0.114 µg/mL | 0.035 µg/mL | 0.016 µg/mL | 22.2 µg·h/mL | 1.6 µg/mL | 8 h | 4.7 h | 0.009 µg/mL | 0.041 µg/mL | 0.137 µg/mL | level at 2 h (in vivo; sc, 5 mg/kg): 1.05 µg/mL; level at 4 h (in vivo; sc, 5 mg/kg): 0.958 µg/mL; level at 8 h (in vivo; sc, 5 mg/kg): 1.6 µg/mL; level at 12 h (in vivo; sc, 5 mg/kg): 1.43 µg/mL; level at 24 h (in vivo; sc, 5 mg/kg): 0.175 µg/mL; AUC0-∞ dcor. (in vivo; iv, 1 mg/kg): 2945.0 kg·ng·h/mg/mL; Cmax dcor. (in vivo; iv, 1 mg/kg): 2317.0 kg·ng/mg/mL; AUC0-∞ dcor. (in vivo; sc, 5 mg/kg): 4436.2 kg·ng·h/mg/mL; Cmax dcor. (in vivo; sc, 5 mg/kg): 320.6 kg·ng/mg/mL; remaining at 24 h, 10 μM [1]: 74%; human pl. T1/2 ([1]; up to 1440 min): 24 h |

— patent US8716242B2, “β-hairpin peptidomimetics” (priority 2009, dated 2014)
